Reference: ChEMBL document CHEMBL1201862, “PubChem BioAssay data set” (2004)
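Growth conditions: 96-well plates. Treatment: test compound, 48 hours, 5 concentrations. Analysis: linear interpolation between bracketing concentrations; unreached endpoints set to highest concentration. GI50 = concentration required for 50% inhibition of growth.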 Calls of active or inactive are those of the source. Cut-off read from the data, not from the text of the source: active = GI50 up to about 1.1 µM and inactive = higher.

Experiments:
Experiment in all cases: DTP human tumour cell line panel, 48 h
[1] = system: 786-0
[2] = system: ACHN
[3] = system: BT-549
[4] = system: HCC 2998
[5] = system: HOP-92
[6] = system: KM12
[7] = system: M14
[8] = system: MCF7
[9] = system: MDA-MB-435
[10] = system: MDA-N
[11] = system: NCI-H522
[12] = system: NCI/ADR-RES
[13] = system: OVCAR-4
[14] = system: OVCAR-5
[15] = system: PC-3
[16] = system: SF-539
[17] = system: SK-MEL-28
[18] = system: SNB-75
[19] = system: UACC-257
[20] = system: UO-31

Measured: GI50

O=C1c2c(Br)sc(Br)c2C(=O)C1(O)O
inactive: [1] 34 µM | [2] 31.8 µM | [3] 19.3 µM | [4] > 100 µM | [5] 17.9 µM | [6] > 100 µM | [7] 19.2 µM | [8] 44.5 µM | [9] 19.4 µM | [10] 36.8 µM | [11] 18.8 µM | [12] > 100 µM | [13] 18.3 µM | [14] 23.7 µM | [15] 22.8 µM | [16] 20.8 µM | [17] > 100 µM | [18] 36.4 µM | [19] 19.8 µM | [20] 34.2 µM

Clc1ccc(C(c2ccccc2Cl)C(Cl)Cl)cc1 (stereo not given) [MITOTANE]
inactive: [1] 19.2 µM | [2] 14.8 µM | [3] 1.59 µM | [4] 12.7 µM | [5] 13 µM | [6] 16 µM | [7] 19.3 µM | [8] 19.2 µM | [9] 3.08 µM | [10] 18 µM | [11] 16.7 µM | [12] 15.3 µM | [13] 16 µM | [14] 18 µM | [15] 3.39 µM | [16] 17.1 µM | [17] 18.9 µM | [18] 15.2 µM | [19] 19.4 µM | [20] 16.9 µM
